Legend:
UWB1.289 cells = assay: Cell proliferation inhibitory activity in BRCA1/2-mutant or HRD-positive cells (Cell Titer-Glo); assay type: cell-based; conditions: UWB1289; UWB1.289 cells, 144 hours after compound treatment, Cell Titer-Glo, 1.5 nM to 10 µM; read-out: GI50 UWB1.289 BRCA1 mut
How it was run: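 GI50 from CellTiter-Glo luminescence after 144 h compound exposure at 37 °C. Cells seeded at 1,000 per well in MEBM/RPMI1640 mix 16–24 h beforehand; […] from 10 µM down to 1.5 nM final (3-fold steps).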

recombinant USP1 protein = biological target: T1, recombinant USP1 protein (Homo sapiens, UniProt O94782, DEL125-138/DEL229-408/DEL608-737); assay: Binding affinity to recombinant USP1 protein by differential scanning fluorimetry; conditions: compound 100 µM; 0.03 mg/mL USP1 (Δ1-66, Δ125-138, Δ229-408, Δ608-737); Tm with compound minus Tm with DMSO; read-out: ΔTm (°C)
T1 sequence (O94782 with tags, fused parts or gaps DEL125-138/DEL229-408/DEL608-737): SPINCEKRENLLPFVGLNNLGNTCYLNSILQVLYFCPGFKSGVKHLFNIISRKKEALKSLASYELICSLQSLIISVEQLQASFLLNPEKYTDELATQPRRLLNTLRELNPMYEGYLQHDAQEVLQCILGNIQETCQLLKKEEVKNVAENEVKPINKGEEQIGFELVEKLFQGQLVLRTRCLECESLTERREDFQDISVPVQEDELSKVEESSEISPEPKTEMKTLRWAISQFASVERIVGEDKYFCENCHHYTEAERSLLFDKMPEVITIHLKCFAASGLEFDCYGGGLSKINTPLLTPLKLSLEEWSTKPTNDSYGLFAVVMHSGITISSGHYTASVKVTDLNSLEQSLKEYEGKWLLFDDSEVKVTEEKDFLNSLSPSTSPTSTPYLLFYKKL
How it was run: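 Thermal shift readout: ΔTm is the compound-well melting temperature less the DMSO-well value, measured by real-time PCR. Compounds tested at 100 µM final against 0.03 mg/mL truncated USP1 (Δ1-66, Δ125-138, Δ229-408, Δ608-737) in pH 8.0 Tris buffer containing 150 mM NaCl, 2% glycerol, 1 mM DTT.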

SMILES: COc1ncnc(C2CC2)c1-c1ncc2cc(C(=O)N[C@@H]3CN(C)C[C@H]3F)n(Cc3ccc(-c4nc(C(F)(F)F)cn4C)cc3)c2n1 [Example 218, 2-(4-cyclopropyl-6-methoxypyrimidin-5-yl) -N-((3R,4R)-4-fluoro-1-methylpyrrolidin-3-yl)-7-(4-(1-methyl-4-(trifluoromethyl)-1H-imidazol-2-yl)benzyl)-7H-pyrrolo[2,3-d]pyrimidine-6-carboxamide]
- GI50 (UWB1.289 cells): < 0.1 µM
- ΔTm at 100 µM (recombinant USP1 protein): > 5 °C

SMILES: COc1ncnc(C2CC2)c1-c1ncc2cc(C(=O)N[C@@H]3CCN(C)C[C@@H]3F)n(Cc3ccc(-c4nc(C(F)(F)F)cn4C(C)C)cc3)c2n1 [Example 219, 2-(4-cyclopropyl-6-methoxypyrimidin-5-yl)-N-((3S,4R)-3-fluoro-1-methylpiperidin-4-yl)-7-(4-(1-isopropyl-4-(trifluoromethyl)-1H-imidazol-2-yl)benzyl)-7H-pyrrolo[2,3-d]pyrimidine-6-carboxamide]
- GI50 (UWB1.289 cells): < 0.1 µM
- ΔTm at 100 µM (recombinant USP1 protein): > 5 °C

SMILES: COc1ncnc(C2CC2)c1-c1ncc2cc(C(=O)N[C@H]3CN(C)C[C@H]3F)n(Cc3ccc(-c4nc(C(F)(F)F)cn4C(C)C)cc3)c2n1 [Example 220, 2-(4-cyclopropyl-6-methoxypyrimidin-5-yl)-N-((3S,4R)-4-fluoro-1-methylpyrrolidin-3-yl)-7-(4-(1-isopropyl-4-(trifluoromethyl)-1H-imidazol-2-yl)benzyl)-7H-pyrrolo[2,3-d]pyrimidine-6-carboxamide]
- GI50 (UWB1.289 cells): < 0.1 µM
- ΔTm at 100 µM (recombinant USP1 protein): > 5 °C

SMILES: COc1ncnc(C2CC2)c1-c1ncc2cc(C(=O)N[C@@H]3CCN(C(C)C)C[C@@H]3F)n(Cc3ccc(-c4nc(C(F)(F)F)cn4C)cc3)c2n1 [Example 221, 2-(4-cyclopropyl-6-methoxypyrimidin-5-yl)-N-((3S,4R)-3-fluoro-1-isopropylpiperidin-4-yl)-7-(4-(1-methyl-4-(trifluoromethyl)-1H-imidazol-2-yl)benzyl)-7H-pyrrolo[2,3-d]pyrimidine-6-carboxamide]
- GI50 (UWB1.289 cells): < 0.1 µM
- ΔTm at 100 µM (recombinant USP1 protein): > 5 °C

— patent EP4806898A1, “HETEROARYL DERIVATIVE COMPOUND AND USE THEREOF” (Voronoi Inc., priority 2023, dated 2025)
